≈ marks a conversion by molar mass, not a printed value.

One data set relates to human liver microsomes. Description: Microsomal stability assay. The class given is in vitro ADME. The note with it: for Eh (hepatic extraction ratio): fu = 1, Q = 20.0 mL∙min-1∙kg-1, human; for Clint,micro: human liver microsomes. As to the method:
(§1) 4. Microsomal stability assay
(§2) A microsomal stability assay was performed according to an internal standard procedure. Positive control compound diclofenac and three test items were freshly prepared as sub-dilutions in phosphate buffer (100 mM, pH 7.4) at concentrations of 200 µM and 20 µM, respectively. All incubations were conducted in triplicate in glass screw neck vials (1.5 mL, flat bottom, Macherey-Nagel, Düren, Germany) on a Thermomixer C (Eppendorf, Germany) at 37 °C and 1500 rpm. The incubation mixtures contained 270 µL human liver microsomes (HLM, 1.1 mg∙mL -1, UltraPool HLM 150, Corning B.V.
(§3) Life Science, Amsterdam, the Netherlands), 270 µL NADP regeneration mix (1 mM NADP, 5 mM glucose-6-phosphate, 5 units∙mL -1 glucose-6-phosphate dehydrogenase and 5 mM MgCl 2) and 30 µL phosphate buffer to reach a total volume of 570 µL. Negative controls were performed with heat inactivated (80 °C, 30 min) HLM solution. Reactions were initiated by addition of diclofenac or the test item solution (30 µL). Aliquots of 100 µL were taken at 1, 15, 30, 60, and 90 minutes and immediately processed with 100 µL acetonitrile at 4°C to terminate the reactions, and shaken for 2 minutes at 4°C with 1600 rpm. The mixed samples were further centrifuged for 2 minutes at 4 °C with 16.1 krcf. The supernatants were withdrawn and subjected to high resolution mass spectrometry analysis without […]
(§4) Analysis of microsomal stability assay
(§5) Samples were analyzed using a Vanquish Horizon UHPLC system (Thermo Fisher Scientific, Bremen, Germany) coupled to a Thermo Scientific QExactive HF-X Orbitrap mass spectrometer (Thermo Fisher Scientific, Bremen, Germany) using a UPLC column (ACQUITY HSS T3, Waters, 1.8 µm particle size, 2.1 × 50 mm dimensions) equipped with a pre-column (ACQUITY HSS T3 VanGuard Pre-column, Waters, 1.8 µm particle size, 2.1 × 5 mm dimensions). The column temperature was maintained at 25°C, and the samples were kept at 4°C. The UHPLC system was operated at a flow rate of 0.6 mL/min and an injection volume of 5 µL. Mobile phases consisted of 0.1% (v/v) formic acid in water (Eluent A) and 0.1% (v/v) formic acid in acetonitrile (Eluent B). Chromatographic separation was obtained as follows:
(§6) 0 to 4 min: a linear from 5 to 98% of Eluent B; 4 to 6.5 min: isocratic at 98% B; 6.5 to 7 min: linear from 98 to 5% B; 7 to 9 min: isocratic at 5% B. The high-resolution mass spectra were acquired with electrospray ionization at both positive and negative modes. A scan range of m/z 120 to 1800 was chosen, and the maximum injection time was set to 200 ms. Ion source parameters were: spray voltage 3.5 kV, capillary temperature 320°C, RF level 40, sheath gas pressure 50 (N 2 > 95%), auxiliary gas 10 (N2 > 95%), auxiliary gas heater temperature 300°C. The value for the automatic gain control (AGC) target was set to 10 6, resolution was 60000, and chromatographic peak width (FWHM) was 15 s.
(§7) Calculation of the results from microsomal stability assay
(§8) Elimination rate constant (k) = (- gradient)
(§9) Half-life (t ) (min) = ௟௡
(§10) V (µL∙mg -1) = ௩௢௟௨௠௘ ௢௙ ௜௡௖௨௕௔௧௜௢௡ (µ௅) […]
(§11) Intrinsic clearance in liver microsomes (Cl ) (µL∙min∙mL -1protein) = ௏ × ௟௡ଶ […]
(§12) Intrinsic clearance (Cl ) (mL∙min -1∙kg -1) = ௟௡ × ௏ × ௠௚ ௠௜௖௥௢௦௢௠௔௟ ௣௥௢௧௘௜௡ × ௚ ௟௜௩௘௥ int ௧భ/మ ଵ଴଴଴ ௚ ௟௜௩௘௥ ௪௘௜௚௛௧ ௞௚ ௕௢ௗ௬ ௪௘௜௚௛௧
(§13) (52.5 mg protein∙ g -1 liver used for human; 22.0 g∙ kg -1 liver to body weight used for human) Hepatic extraction ratio (E ) = ୤౫ × େ୪౟౤౪
(§14) (fu: fraction of drug unbound in plasma, f u = 1 used for the calculation; Q: hepatic blood flow, 20.0 mL∙min-1∙kg -1 for human).

Data set [1] can be described thus: Microsomal stability assay. The class given is in vitro ADME, human. The note with it: pH 7.4; for CLint scaled at 1 µM: liver microsomes, scaled: 52.5 mg protein/g liver, 22.0 g liver/kg, human; for half-life at 1 µM: human liver microsomes, 37 °C. How it is done: as §1, §2, §3, §4, §5, §6, §7, §8, §9, §10, §11, §12, §13, §14
The test system of data set [2] is Mycobacterium smegmatis (JMRC:STH:00056). Description: MIC determination. The class given is cell-based. The note with it: Mycolicibacterium smegmatis; n = 1. How it is done:
Supplementary Method 5: Biological Assays
Minimal inhibitory concentrations were determined against Mycobacterium vaccae (JMRC:STI:10670) and Mycobacterium smegmatis (JMRC:STH:00056). M. vaccae and M. smegmatis cultures were grown 48 h at 32 °C in a medium consisting of glycerol (1%), beef extract (0.5%), peptone from casein (0.5%) and sodium chloride (0.3%). Serial dilutions of the DMSO test item solutions (1 mg∙mL -1) were prepared at 100 µL scale in 96 well plates in Mueller Hinton broth starting at 200 µg∙mL -1 (highest) to cover a final concentration range of 100 to 0.05 µg∙mL -1. Each plate was equipped with a series of DMSO and ciprofloxacin dilutions as quality controls. 96 well plates were inoculated with 100 µL diluted culture (Mueller Hinton bullion) at a final concentration of 5∙10 5 and incubated at 37 °C for 42 h. Growth/no growth was visually inspected. […]

Regarding `COC(=O)c1cc([N+](=O)[O-])c2sc(N3CCC4(CC3)OC[C@H](C)O4)nc(=O)c2c1` [Compound 6a], in the data set on human liver microsomes, the “Eh (hepatic extraction ratio)” value was 94.8% and the “Clint,micro” value is 314.7 µl.min-1-mg-1 protein. Moreover, in data set [1], the CLint scaled at 1 µM was found to be 363 mL/min/kg and the half-life at 1 µM worked out at 4.45 min. 3.7 µM (≈ 1.56 µg/mL) was the least that counted as inhibitory in data set [2] (MIC).
For `CC(C)OC(=O)c1cc([N+](=O)[O-])c2sc(N3CCC4(CC3)OC[C@H](C)O4)nc(=O)c2c1` [Compound 6c], in the data set on human liver microsomes, the “Eh (hepatic extraction ratio)” value was found to be 75.3% and the “Clint,micro” value amounted to 52.9 µl.min-1-mg-1 protein. Also, in data set [1], the CLint scaled at 1 µM turned out to be 61.1 mL/min/kg and the half-life at 1 µM turned out to be 26.5 min. In data set [2], this molecule yielded an MIC of 6.94 µM (≈ 3.12 µg/mL).
For `C[C@H]1COC2(CCN(c3nc(=O)c4cc(C(=O)N(C)C)cc([N+](=O)[O-])c4s3)CC2)O1` [Compound 7c], in that order: 13%, 2.6 µl.min-1-mg-1 protein, 3 mL/min/kg, 533 min and 230 µM (≈ 100 µg/mL).
Regarding `CON(C)C(=O)c1cc([N+](=O)[O-])c2sc(N3CCC4(CC3)OC[C@H](C)O4)nc(=O)c2c1` [Compound 7f], in the data set with human liver microsomes, the “Eh (hepatic extraction ratio)” value amounted to 35.5% and the “Clint,micro” value is reported as 9.5 µl.min-1-mg-1 protein. In data set [1], the CLint scaled at 1 µM came to 11 mL/min/kg and the half-life at 1 µM worked out at 147 min. The molecule further showed an MIC in data set [2] of 111 µM (≈ 50 µg/mL).
Take `C[C@H]1COC2(CCN(c3nc(=O)c4cc(C(=O)O)cc([N+](=O)[O-])c4s3)CC2)O1` [Compound 8]: the MIC in data set [2] was found to be 15.3 µM (≈ 6.23 µg/mL).
As to `C[C@H]1COC2(CCN(c3nc(=O)c4cc(C#N)cc([N+](=O)[O-])c4s3)CC2)O1` [Compound 9], in the data set with human liver microsomes, the “Eh (hepatic extraction ratio)” value worked out at 43.5% and the “Clint,micro” value came out at 13.3 µl.min-1-mg-1 protein. Moreover, in data set [1], the CLint scaled at 1 µM amounted to 15.4 mL/min/kg and the half-life at 1 µM amounted to 105 min. The molecule further gave an MIC in data set [2] of 0.13 µM (≈ 0.0505 µg/mL).
In the same order, the values of `C[C@H]1COC2(CCN(c3nc(=O)c4cc(I)cc([N+](=O)[O-])c4s3)CC2)O1` [Compound 10] are 48.8%, 16.1 µl.min-1-mg-1 protein, 19.1 mL/min/kg, 84.5 min and 0.1 µM (≈ 0.0489 µg/mL).
For `C[C@H]1COC2(CCN(c3nc(=O)c4cc(Br)cc([N+](=O)[O-])c4s3)CC2)O1` [Compound 11], in that order: 47.9%, 16 µl.min-1-mg-1 protein, 18.4 mL/min/kg, 87.7 min and 0.057 µM (≈ 0.0252 µg/mL).
In the same order, the values of `C[C@H]1COC2(CCN(c3nc(=O)c4cccc([N+](=O)[O-])c4s3)CC2)O1` [Compound 23] are 22.5%, 5.1 µl.min-1-mg-1 protein, 5.8 mL/min/kg, 277 min and 8.59 µM (≈ 3.12 µg/mL).

Broadly, the CLint scaled is the capacity of the preparation to metabolise the compound, expressed as a volume cleared per time. Usually half-life stands for the time in which the quantity being followed falls by half. In general, MIC refers to the lowest concentration found to suppress growth. High values mean weaker potency, low ones greater potency.

The record behind these values is PMC11227536, “Modulation of the Meisenheimer complex metabolism of nitro-benzothiazinones by targeted C-6 substitution” (Communications Chemistry, 2024).
